Test results published in US5494895A, “Scorpion peptide margatoxin with immunosuppressant activity” (Merck & Co., Inc., priority 1993, dated 1996).
Peptide text beside a SMILES is read from it.

Assays:
[1] = target: T1, lymphocyte Kv 1.3 current (Homo sapiens, UniProt P22001); experiment: Whole cell patch clamp of human peripheral T-lymphocytes; format: cell-based
T1 construct: endogenous in cells; host or cells: purified human peripheral blood T lymphocytes
Procedure: Ionic currents were recorded from human peripheral T-lymphocytes using the whole cell patch clamp technique described in Cahalan, M. and Neher, E., Meth. Enzymol. 207, 3, 1992. Purified human T cells were obtained as described in Leonard et al., Proc. Natl. Acad. Sci. U.S.A., 89, 10094, 1992, and recordings were carried out in a bath solution consisting of ^125 mM NaCl, 2.5 mM KCl, 1.0 mM CaCl2, 2.0 mM MgCl2, 10 mM HEPES (potassium salt), 10 mM glucose, 5 mM Na-pyruvate, and 0.05% BSA. The pH was adjusted to 7.2, and experiments were performed at room temperature (19°-22° C.). The intracellular (pipette) solution contained 140 mM K-glutamate, 1 mM MgCl2, 10 mM HEPES (potassium salt), and 0.1 mM EGTA. The pH was adjusted to 7.2. Patch pipettes were fabricated from DAGAN (Minneapolis, Minn.) LG-16 glass and had resistances of 2 to 8M.OMEGA.. Currents were measured using a DAGAN model 3900 patch clamp. Delivery of command voltages, data acquisition, and post-acquisition analysis were aided by a microcomputer running the Pclamp program suite (AXON INSTRUMENTS, Foster City, Calif.).
Methods for oocyte isolation and micro-injection were previously described in Goldin, Meth. Cell Biol, 36, 487, 1991, and Swanson and Folander, Meth. Enzymol., 207, 310, 1992. Currents expressed in oocytes were measured using a DAGAN model CA-1 two-electrode voltage clamp. Delivery of command voltages, data acquisition and post-acquisition analysis were aided by a microcomputer running the Pclamp program suite. The oocyte bathing solution consisted of 96 mM NaCl, 2.5 mM KCl, 1 mM MgCl2, 1.8 mM CaCl2, 10 mM HEPES, and 0.05% BSA. The pH was 7.2. All recordings were obtained at room temperature (19°-22° C.). The intracellular microelectrodes were fabricated from DAGAN LE-16 glass in a two-stage pull to a final resistance of 0.6 to 2M.OMEGA. and filled with 3M KCl. For both lymphocyte and oocyte experiments, peptides were diluted into the extracellular solution from 20 μM aqueous stock containing 100 mM NaCl. The presence of 0.05% BSA in the bath solution inhibited non-specific loss of dilute peptide toxins in the perfusion tubing.
Both native and recombinant MgTX were tested for their ability to block voltage gated K^+ channels. […] There was insufficient native toxin to carry out selectivity studies, so those were conducted using the recombinant material exclusively. […] The apparent IC50 for inhibition of the lymphocyte Kv 1.3 current is between 20 to 100 pM. […] As reported previously, MgTX has no effect on three different ChTX-sensitive, Ca^2+ -activated K^+ channels of lymphocytes, even at 100 nM (Leonard et al., Proc. Natl. Acad. Sci. U.S.A. 89, 10094, 1992).

[2] = system: Kv 3 (rat Kv 1.3; human Kv 1.3); experiment: Two-electrode voltage clamp of Xenopus oocytes expressing Kv 3 (Kv 1.3); format: cell-based, rat and human; conditions: read-out: IC50 on cloned channel Kv 3
Procedure: (§1) Ionic currents were also recorded from Xenopus oocytes that had been injected with RNA transcribed in vitro from one or another of the following K^+ channel cDNA clones. Kv 1 (rat Kv 1.5), rat or human Kv 3 (rat Kv 1.3; human Kv 1.3), Kv 4 (rat Kv 3.1 ), rat ISK, Kv 2 (rat Kv 1.6) or Drosophila Shaker-H4. The names of the clones are listed as originally published, with the appropriate parenthetical designation according to the unified gene nomenclature proposed by Chandy. Shaker-H4 is a splice variant from the original Drosophila Shaker K^+ channel gene. Kv 1.3 is the ChTX-sensitive delayed rectifier current found in rat and human T lymphocytes (data from rat and human clones were indistinguishable and were combined) and it is a member of the Shaker family. Kv 1.5 is a channel cloned from rat (Swanson et al., Neuron, 4, 929, 1990) and is another member of the Shaker family. The Kv 1.5 transcript has been detected in pancreatic β cells as described in Philipson, et al., Proc. Natl. Acad. Sci. U.S.A. 88, 53, 1991. […] The ISK transcript has been detected in lymphocytes (Attali et al., J. Biol. Chem,. 267, 8650, 1992), but no evidence of the IKs current has been found in those cells.
(§2) Methods for oocyte isolation and micro-injection were previously described in Goldin, Meth. […] Currents expressed in oocytes were measured using a DAGAN model CA-1 two-electrode voltage clamp. […]

[3] = target: T2, Kv 1 (rat Kv 1.5) (Rattus norvegicus, UniProt P19024); experiment: Two-electrode voltage clamp of Xenopus oocytes expressing Kv 1 (Kv 1.5); format: cell-based; conditions: 200 nM MgTX
T2 construct: expressed in transfected cells; host or cells: Xenopus oocytes injected with RNA transcribed in vitro from the cDNA clone
T2 sequence (P19024 whole entry): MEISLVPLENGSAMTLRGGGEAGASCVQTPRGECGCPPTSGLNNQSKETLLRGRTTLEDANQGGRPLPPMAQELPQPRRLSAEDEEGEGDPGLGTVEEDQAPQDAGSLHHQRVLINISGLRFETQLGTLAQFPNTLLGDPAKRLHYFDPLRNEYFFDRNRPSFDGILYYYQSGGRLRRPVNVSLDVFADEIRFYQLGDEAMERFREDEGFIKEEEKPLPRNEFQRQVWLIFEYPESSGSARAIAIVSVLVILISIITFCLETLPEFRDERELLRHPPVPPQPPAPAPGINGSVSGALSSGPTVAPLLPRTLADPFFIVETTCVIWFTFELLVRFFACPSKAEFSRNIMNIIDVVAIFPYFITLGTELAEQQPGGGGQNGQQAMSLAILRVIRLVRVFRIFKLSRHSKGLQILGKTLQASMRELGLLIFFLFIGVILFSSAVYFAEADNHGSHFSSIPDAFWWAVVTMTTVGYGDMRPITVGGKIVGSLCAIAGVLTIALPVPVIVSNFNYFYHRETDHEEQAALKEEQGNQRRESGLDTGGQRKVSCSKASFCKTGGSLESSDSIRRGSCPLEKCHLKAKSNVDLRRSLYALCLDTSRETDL
Procedure: as §1, §2

[4] = target: T3, Shaker-H4 (Drosophila melanogaster, UniProt P08510); experiment: Two-electrode voltage clamp of Xenopus oocytes expressing Shaker-H4; format: cell-based
T3 construct: expressed in transfected cells; host or cells: Xenopus oocytes injected with RNA transcribed in vitro from the cDNA clone
T3 sequence (P08510 whole entry): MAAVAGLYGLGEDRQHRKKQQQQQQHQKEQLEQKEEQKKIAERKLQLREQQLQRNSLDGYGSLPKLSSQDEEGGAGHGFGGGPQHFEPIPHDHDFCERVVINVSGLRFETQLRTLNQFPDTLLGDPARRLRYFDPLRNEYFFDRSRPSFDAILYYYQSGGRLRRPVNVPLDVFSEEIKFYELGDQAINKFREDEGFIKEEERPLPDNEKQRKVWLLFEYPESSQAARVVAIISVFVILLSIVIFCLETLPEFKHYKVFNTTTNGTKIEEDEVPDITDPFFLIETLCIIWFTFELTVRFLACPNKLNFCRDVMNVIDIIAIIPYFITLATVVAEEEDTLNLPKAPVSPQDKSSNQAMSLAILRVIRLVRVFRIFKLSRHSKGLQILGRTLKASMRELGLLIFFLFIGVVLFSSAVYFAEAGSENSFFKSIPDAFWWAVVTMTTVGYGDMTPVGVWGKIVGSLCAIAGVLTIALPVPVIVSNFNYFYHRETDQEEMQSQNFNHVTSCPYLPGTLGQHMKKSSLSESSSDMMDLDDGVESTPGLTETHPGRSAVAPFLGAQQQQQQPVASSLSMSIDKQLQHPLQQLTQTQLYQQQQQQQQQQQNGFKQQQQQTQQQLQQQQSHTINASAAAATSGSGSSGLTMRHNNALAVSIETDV
Procedure: as §1, §2

[5] = system: three different ChTX-sensitive, Ca2+-activated K+ channels of lymphocytes; conditions: even at 100 nM; cited from earlier work
[6] = system: human T-lymphocytes; conditions: cited from earlier work

T1 sequence (P22001 whole entry): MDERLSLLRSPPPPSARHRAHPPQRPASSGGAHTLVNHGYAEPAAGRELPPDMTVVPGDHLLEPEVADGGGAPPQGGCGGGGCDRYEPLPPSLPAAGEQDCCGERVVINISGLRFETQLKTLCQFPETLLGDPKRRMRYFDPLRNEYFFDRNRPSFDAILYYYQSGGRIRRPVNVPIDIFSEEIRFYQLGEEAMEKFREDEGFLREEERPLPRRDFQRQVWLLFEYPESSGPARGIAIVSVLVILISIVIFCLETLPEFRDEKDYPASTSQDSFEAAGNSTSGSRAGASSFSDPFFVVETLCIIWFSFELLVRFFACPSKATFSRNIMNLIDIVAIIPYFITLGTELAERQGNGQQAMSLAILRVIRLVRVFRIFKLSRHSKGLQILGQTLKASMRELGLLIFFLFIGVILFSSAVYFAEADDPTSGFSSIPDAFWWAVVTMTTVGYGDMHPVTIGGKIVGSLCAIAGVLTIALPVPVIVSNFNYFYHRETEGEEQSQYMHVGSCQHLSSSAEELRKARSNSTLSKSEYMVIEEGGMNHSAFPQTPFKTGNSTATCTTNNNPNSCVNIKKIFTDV

Q: With `CC[C@H](C)[C@H](NC(=O)[C@@H](N)[C@@H](C)O)C(=O)N[C@H](C(=O)N[C@@H](CC(N)=O)C(=O)N[C@H](C(=O)N[C@@H](CCCCN)C(=O)N[C@H]1CSSC[C@@H]2NC(=O)[C@H](CCCCN)NC(=O)[C@H](C)NC(=O)CNC(=O)[C@H](C)NC(=O)[C@H](CO)NC(=O)[C@H](CCC(N)=O)NC(=O)CNC(=O)[C@H](Cc3ccccc3)NC(=O)[C@H](CCC(N)=O)NC(=O)[C@H](C)NC(=O)[C@H](CCCCN)NC(=O)[C@@H]3CSSC[C@@H](C(=O)N[C@@H](Cc4ccc(O)cc4)C(=O)N4CCC[C@H]4C(=O)N[C@@H](Cc4c[nH]cn4)C(=O)O)NC(=O)[C@H](CCCCN)NC(=O)[C@H](CSSC[C@H](NC(=O)[C@H](CCC(N)=O)NC(=O)[C@H](CCCCN)NC(=O)[C@@H]4CCCN4C(=O)[C@H](CO)NC(=O)[C@H]([C@@H](C)O)NC1=O)C(=O)N[C@@H](CC(C)C)C(=O)N1CCC[C@H]1C(=O)N1CCC[C@H]1C(=O)N3)NC(=O)[C@H](CCCCN)NC(=O)CNC(=O)[C@H](CC(N)=O)NC(=O)[C@H](CCSC)NC2=O)C(C)C)[C@@H](C)CC` [MgTX, Margatoxin] (HELM PEPTIDE1{T.I.I.N.V.K.C.T.S.P.K.Q.C.L.P.P.C.K.A.Q.F.G.Q.S.A.G.A.K.C.M.N.G.K.C.K.C.Y.P.H}$PEPTIDE1,PEPTIDE1,7:R3-29:R3|PEPTIDE1,PEPTIDE1,13:R3-34:R3|PEPTIDE1,PEPTIDE1,17:R3-36:R3$$$V2.0; N-terminus and C-terminus assumed; bridges inferred) as the compound, how does the “t1/2 of recovery from block following removal from the bath” value [1] read?
A: Its value is > 20 min.

Q: What about the “inhibition of the voltage activated K+ channel from human lymphocytes” value ([1]; at 1 nM) of the same compound?
A: The value was “Complete inhibition”.

Q: What about the “potency relative to ChTX on the same preparation” value ([1]; lymphocyte Kv 1.3 current) of the same compound?
A: The value was “five to ten-fold more potent”.

Q: And the IC50 ([1]; read-out: apparent IC50 for inhibition of the lymphocyte Kv 1.3 current)?
A: The IC50 was 0.02 to 0.1 nM.

Q: What about the IC50 [2] of the same compound?
A: The IC50 was ~0.03 nM.

Q: And the “sensitivity of cloned channel Kv 5 to block” value [3]?
A: Its value is “completely insensitive”.

Q: And the IC50 [4]?
A: Its IC50 is 100 nM.

Q: What about the “effect on three ChTX-sensitive Ca2+-activated K+ channels of lymphocytes” value [5] of the same compound?
A: Its value is “no effect”.

Q: And the “effect on interleukin 2 production” value [6]?
A: Its value is “inhibits interleukin 2 production”.
